In PubChem BioAssay AID248 (DTP/NCI, 2004):
“And” between values parts separate entries of the source, which are not always exact repeats. Equal entries are not always repeated. Toxic doses and inconclusive results are not listed.

Test system: L1210 leukemia ip in BDF1 mice, survival T/C
Assay: NCI In Vivo Anticancer Drug Screen. Data for tumor model L1210 Leukemia (intraperitoneal) in B6D2F1 (BDF1) mice
Details: endpoint: mean survival time, higher = longer survival
Outline: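 Ratio derived from survival: compound-dosed mice over vehicle-dosed mice, all bearing a transplantable tumor.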

[1] = dose: 100.0 mg/kg/injection, schedule: Q01DX001 (ip), vehicle: carboxymethylcellulose (CMC)
[2] = dose: 200.0 mg/kg/injection, schedule: Q01DX001 (ip), vehicle: carboxymethylcellulose (CMC)
[3] = dose: 400.0 mg/kg/injection, schedule: Q01DX001 (ip), vehicle: carboxymethylcellulose (CMC)
[4] = dose: 100.0 mg/kg/injection, schedule: Q04DX003 (ip), vehicle: saline with Tween-80
[5] = dose: 200.0 mg/kg/injection, schedule: Q04DX003 (ip), vehicle: saline with Tween-80
[6] = dose: 400.0 mg/kg/injection, schedule: Q04DX003 (ip), vehicle: saline with Tween-80
[7] = dose: 100.0 mg/kg/injection, schedule: Q01DX009 (ip), vehicle: Klucel (hydroxypropylcellulose) (HPC)
[8] = dose: 200.0 mg/kg/injection, schedule: Q01DX009 (ip), vehicle: Klucel (hydroxypropylcellulose) (HPC)
[9] = dose: 100.0 mg/kg/injection, schedule: Q01DX009 (ip), vehicle: saline with Tween-80
[10] = dose: 200.0 mg/kg/injection, schedule: Q01DX009 (ip), vehicle: saline with Tween-80
[11] = dose: 100.0 mg/kg/injection, schedule: Q01DX001 (ip), vehicle: saline with Tween-80
[12] = dose: 200.0 mg/kg/injection, schedule: Q01DX001 (ip), vehicle: saline with Tween-80

## CC(C)CCCC(C)C1CCC2C3CC(=O)C45CC4CCC5(C)C3CCC12C (configuration not stated)
dose: 100.0 mg/kg/injection, schedule: Q04DX003 (ip), vehicle: other
  T/C: 97 % of control
dose: 200.0 mg/kg/injection, schedule: Q04DX003 (ip), vehicle: other
  T/C: 102 % of control
dose: 400.0 mg/kg/injection, schedule: Q04DX003 (ip), vehicle: other
  T/C: 108 % of control

## O=[N+]([O-])c1cc2cnn(CCl)c2cc1[N+](=O)[O-]
dose: 100.0 mg/kg/injection, schedule: Q01DX001 (ip), vehicle: saline
  T/C: 103 % of control
dose: 200.0 mg/kg/injection, schedule: Q01DX001 (ip), vehicle: saline
  T/C: 111 % of control
dose: 400.0 mg/kg/injection, schedule: Q01DX001 (ip), vehicle: saline
  T/C: 109 % of control

## O=C(C[n+]1cccc(C(=O)Nc2ccc(Cl)cc2)c1)Nc1ccccc1
dose: 100.0 mg/kg/injection, schedule: Q04DX003 (ip), vehicle: saline
  T/C: 92 % of control
dose: 200.0 mg/kg/injection, schedule: Q04DX003 (ip), vehicle: saline
  T/C: 101 % of control

## CC(C)c1ccc(/C=C/C(=O)O)cc1
dose: 50.0 mg/kg/injection, schedule: Q01DX001 (ip), vehicle: carboxymethylcellulose (CMC)
  T/C: 108 % of control
[1]
  T/C: 97 % of control
[2]
  T/C: 92 % of control
[3]
  T/C: 101 % of control

## O=C(N/N=C\c1cccc2ccccc12)C(=O)N/N=C/c1cccc2ccccc12
[4]
  T/C: 88 % of control
[5]
  T/C: 88 % of control
[6]
  T/C: 91 % of control

## Cc1cc(CO)c(O)c(CO)c1
dose: 100.0 mg/kg/injection, schedule: Q01DX001 (ip), vehicle: other
  T/C: 108 % of control
dose: 100.0 mg/kg/injection, schedule: Q01DX009 (ip), vehicle: saline
  T/C: 97 % of control
dose: 200.0 mg/kg/injection, schedule: Q01DX001 (ip), vehicle: other
  T/C: 100 % of control
dose: 200.0 mg/kg/injection, schedule: Q01DX009 (ip), vehicle: saline
  T/C: 103 % of control
dose: 400.0 mg/kg/injection, schedule: Q01DX001 (ip), vehicle: other
  T/C: 103 % of control
dose: 400.0 mg/kg/injection, schedule: Q01DX009 (ip), vehicle: saline
  T/C: 103 % of control

## Cc1[nH]nc2c(=S)[nH]c(=O)[nH]c12
dose: 75.0 mg/kg/injection, schedule: Q01DX001 (ip), vehicle: saline
  T/C: 92 % of control
dose: 150.0 mg/kg/injection, schedule: Q01DX001 (ip), vehicle: saline
  T/C: 96 % of control

## COc1ccc(CC(N)C(=O)O)cc1N(CCCl)CCCl (configuration not stated)
dose: 0.07 mg/kg/injection, schedule: Q01DX009 (ip), vehicle: carboxymethylcellulose (CMC)
  T/C: 116 % of control
dose: 0.08 mg/kg/injection, schedule: Q01DX009 (ip), vehicle: carboxymethylcellulose (CMC)
  T/C: 117 % of control
dose: 0.4 mg/kg/injection, schedule: Q01DX009 (ip), vehicle: carboxymethylcellulose (CMC)
  T/C: 110 % of control
dose: 0.6 mg/kg/injection, schedule: Q01DX001 (ip), vehicle: carboxymethylcellulose (CMC)
  T/C: 111 % of control and 108 % of control
dose: 1.2 mg/kg/injection, schedule: Q01DX001 (ip), vehicle: carboxymethylcellulose (CMC)
  T/C: 120 % of control and 106 % of control
dose: 1.2 mg/kg/injection, schedule: Q01DX009 (ip), vehicle: carboxymethylcellulose (CMC)
  T/C: 150 % of control
dose: 1.5 mg/kg/injection, schedule: Q01DX009 (ip), vehicle: carboxymethylcellulose (CMC)
  T/C: 151 % of control
dose: 2.0 mg/kg/injection, schedule: Q01DX009 (ip), vehicle: carboxymethylcellulose (CMC)
  T/C: 166 % of control
dose: 2.5 mg/kg/injection, schedule: Q01DX001 (ip), vehicle: carboxymethylcellulose (CMC)
  T/C: 121 % of control and 110 % of control
dose: 2.5 mg/kg/injection, schedule: Q01DX009 (ip), vehicle: carboxymethylcellulose (CMC)
  T/C: 227 % of control
dose: 3.0 mg/kg/injection, schedule: Q01DX009 (ip), vehicle: carboxymethylcellulose (CMC)
  T/C: 183 % of control
dose: 4.5 mg/kg/injection, schedule: Q01DX009 (ip), vehicle: carboxymethylcellulose (CMC)
  T/C: 180 % of control and 213 % of control
dose: 5.0 mg/kg/injection, schedule: Q01DX001 (ip), vehicle: carboxymethylcellulose (CMC)
  T/C: 123 % of control
dose: 5.0 mg/kg/injection, schedule: Q01DX009 (ip), vehicle: carboxymethylcellulose (CMC)
  T/C: 92 % of control
dose: 5.5 mg/kg/injection, schedule: Q01DX001 (ip), vehicle: carboxymethylcellulose (CMC)
  T/C: 151 % of control and 152 % of control
dose: 6.0 mg/kg/injection, schedule: Q01DX009 (ip), vehicle: carboxymethylcellulose (CMC)
  T/C: 98 % of control
dose: 7.0 mg/kg/injection, schedule: Q01DX009 (ip), vehicle: carboxymethylcellulose (CMC)
  T/C: 116 % of control
dose: 11.0 mg/kg/injection, schedule: Q01DX001 (ip), vehicle: carboxymethylcellulose (CMC)
  T/C: 206 % of control
dose: 12.0 mg/kg/injection, schedule: Q01DX009 (ip), vehicle: carboxymethylcellulose (CMC)
  T/C: 93 % of control
dose: 16.5 mg/kg/injection, schedule: Q01DX001 (ip), vehicle: carboxymethylcellulose (CMC)
  T/C: 173 % of control
dose: 25.0 mg/kg/injection, schedule: Q01DX001 (ip), vehicle: carboxymethylcellulose (CMC)
  T/C: 217 % of control

## [O-][n+]1ccccc1-c1ccccc1
dose: 50.0 mg/kg/injection, schedule: Q01DX009 (ip), vehicle: Klucel (hydroxypropylcellulose) (HPC)
  T/C: 104 % of control
[7]
  T/C: 101 % of control
dose: 100.0 mg/kg/injection, schedule: Q04DX002 (ip), vehicle: Klucel (hydroxypropylcellulose) (HPC)
  T/C: 104 % of control
[8]
  T/C: 118 % of control
dose: 200.0 mg/kg/injection, schedule: Q04DX002 (ip), vehicle: Klucel (hydroxypropylcellulose) (HPC)
  T/C: 107 % of control

## O=C(NCc1cnccn1)OCC(Cl)(Cl)Cl
[9]
  T/C: 97 % of control
[10]
  T/C: 106 % of control
dose: 400.0 mg/kg/injection, schedule: Q01DX009 (ip), vehicle: saline with Tween-80
  T/C: 103 % of control

## N\C([S-])=N/N=C\C(=N/N=C(\N)[S-])C(O)C(O)C(O)CO.[Ni+2] (configuration not stated)
[4]
  T/C: 96 % of control
[5]
  T/C: 94 % of control
[6]
  T/C: 91 % of control

## Nc1ncc(CO)c(N)n1
dose: 25.0 mg/kg/injection, schedule: Q01DX001 (ip), vehicle: Klucel (hydroxypropylcellulose) (HPC)
  T/C: 100 % of control
dose: 50.0 mg/kg/injection, schedule: Q01DX001 (ip), vehicle: Klucel (hydroxypropylcellulose) (HPC)
  T/C: 98 % of control
dose: 100.0 mg/kg/injection, schedule: Q01DX001 (ip), vehicle: Klucel (hydroxypropylcellulose) (HPC)
  T/C: 98 % of control and 100 % of control

## C[N+](C)(C)/N=C1\CCc2ccccc21
dose: 50.0 mg/kg/injection, schedule: Q01DX009 (ip), vehicle: saline with Tween-80
  T/C: 100 % of control
dose: 50.0 mg/kg/injection, schedule: Q04DX003 (ip), vehicle: saline with Tween-80
  T/C: 110 % of control
[11]
  T/C: 97 % of control
[9]
  T/C: 97 % of control
[4]
  T/C: 98 % of control
[12]
  T/C: 100 % of control
[10]
  T/C: 103 % of control
[5]
  T/C: 91 % of control

## N#Cc1ccc(S(=O)(=O)Cl)cc1
dose: 25.0 mg/kg/injection, schedule: Q04DX003 (ip), vehicle: Klucel (hydroxypropylcellulose) (HPC)
  T/C: 95 % of control
dose: 50.0 mg/kg/injection, schedule: Q04DX003 (ip), vehicle: Klucel (hydroxypropylcellulose) (HPC)
  T/C: 100 % of control
dose: 100.0 mg/kg/injection, schedule: Q04DX003 (ip), vehicle: Klucel (hydroxypropylcellulose) (HPC)
  T/C: 93 % of control and 91 % of control

## CC(=O)OC1CCC2(C)C(=CCC3C4C/C(=C\N5CCCC5)C(=O)C4(C)CCC32)C1 (configuration not stated)
[11]
  T/C: 93 % of control
[12]
  T/C: 90 % of control
dose: 400.0 mg/kg/injection, schedule: Q01DX001 (ip), vehicle: saline with Tween-80
  T/C: 90 % of control

## CC(C)(CC(=O)O)SCCSC(C)(C)CC(=O)O
[7]
  T/C: 97 % of control
[8]
  T/C: 95 % of control
dose: 400.0 mg/kg/injection, schedule: Q01DX009 (ip), vehicle: Klucel (hydroxypropylcellulose) (HPC)
  T/C: 92 % of control

## CCOC(=O)C(=Cc1csc2ccccc12)C(=O)OCC
[1]
  T/C: 92 % of control
[2]
  T/C: 94 % of control
[3]
  T/C: 94 % of control

## O=C(Nc1ccc(Nc2ccccc2)cc1)Nc1cccc(F)c1
[9]
  T/C: 88 % of control
[10]
  T/C: 96 % of control

## CC/C=C(\C)C1(CCC)C(N)=NC(=O)N=C1N
dose: 75.0 mg/kg/injection, schedule: Q01DX001 (ip), vehicle: carboxymethylcellulose (CMC)
  T/C: 93 % of control
dose: 150.0 mg/kg/injection, schedule: Q01DX001 (ip), vehicle: carboxymethylcellulose (CMC)
  T/C: 91 % of control
